Patent US20210085711A1 (Japan Tobacco Inc., priority 2017, published 2021)
Like-named read-outs stand apart in the source and are kept apart here.

Columns and labels:
[1] = tested on: patients with hypermenorrhea and/or patients with hypermenorrhea-associated gynecologic diseases (iron-deficiency anemia patients); settings: for Hb change, End of administration, Mean: change from baseline; for Williams test, Mean of change amount from the baseline at the end of administration, JTT-751-placebo: difference to placebo
Procedure: (§1) This test was a three-stage safety and efficacy clinical trial at multi-facilities. The first stage was a pre-observation period (Day −40 to Day −1), the second stage was an administration period (Day 1 to Day 48) (efficacy and safety evaluation period), and the third stage was a post-observation period (Day 49 to Day 63) (efficacy and safety evaluation period). The safety evaluation and efficacy evaluation were performed by multi-facility collaboration, placebo control, random allocation, double-blind trial, and parallel group comparison test.
(§2) The administration period of the trial drug is seven weeks which starts from the next day of the Week 0 visit to the day before the Week 7 visit, provided that the trial drug is not taken on the scheduled Week 3 visit.
Amount of change in blood hemoglobin value (Hb) from Week 0 at the end of administration
The mean of each administration group is used as a placebo group (μ1), a 250 mg group (μ2), a 500 mg group (μ3), a 1000 mg group (μ4), a 1500 mg group (μ5).
(§3) The blood hemoglobin value (Hb), the serum iron level, the serum ferritin value, the total iron-binding capacity (TIBC) and the transferrin saturation rate (TSAT), and the mean corpuscular volume (MCV) were each examined at the observation start date, Week 0, Week 3, Week 7, the end of administration and the consultation at nine weeks after Week 0; the hepcidin concentration (Hepcidin 25) and the serum soluble transferrin receptor concentration (sTfR) were each examined on Week 0, Week 3 and Week 7 and at the end of administration; and the C-terminal FGF23 value (cFGF23) and the intact FGF23 value (iFGF23) were each examined on Week 0 and Week 7 and at the end of administration.

[2] = tested on: patients with hypermenorrhea and/or patients with hypermenorrhea-associated gynecologic diseases (iron-deficiency anemia patients); assay: Phase II clinical trial of JTT-751: hepcidin concentration (Hepcidin 25); format: in vivo, human
Procedure: as §1
(1) Japanese patients who are 20 or more and less than 65 years old at the time of agreement and can visit an outpatient clinic (2) Patients who have an Hb value (measured using HemoCue® Hb 201 DM analyzer in the institute of clinical practice) of 7.0 g/dL or more and less than 11.0 g/dL on both the observation start date and Week 0, and the difference between the two days is 1.0 g/dL or less (3) Patients with a TIBC of 360 μg/dL or more or a serum ferritin value of less than 12 ng/mL on the observation start date
as §2
(2) Subsidiary evaluation items 1) Erythrocyte-related examination values and amount of change from Week 0 at each observation date 2) Iron-related test values and amount of change from Week 0 at each observation date 3) Achievement rate of target Hb value (female; 12.0 g/dL or more, male; 13.0 g/dL or more) at each observation date 4) Achievement rate of 1.0 g/dL or more and achievement rate of 2.0 g/dL or more in Hb value improvement from Week 0 at each observation date 5) Average daily change of Hb value from Week 0 to each observation date
as §3

[3] = End of administration, JTT-751 250 mg group
[4] = End of administration, JTT-751 500 mg group
[5] = End of administration, JTT-751 1000 mg group
[6] = End of administration, JTT-751 1500 mg group
[7] = Week 0 (baseline), JTT-751 250 mg group
[8] = Week 0 (baseline), JTT-751 500 mg group
[9] = Week 0 (baseline), JTT-751 1000 mg group
[10] = Week 0 (baseline), JTT-751 1500 mg group

Ferric citrate [JTT-751]
Hb measured value, Base line, Mean ([1]; 250 mg/day): 9.47 g/dL
Hb measured value, End of administration, Mean ([1]; 250 mg/day): 11.72 g/dL
Williams test, Mean of change amount from the baseline at the end of administration, Mean ([1]; 250 mg/day): 2.25 g/dL
Hb, Median ([1]; 250 mg/day, 9 weeks after Week 0): 11.60 g/dL
Hb, Median ([1]; 250 mg/day, End of administration): 11.80 g/dL
Hb, Median ([1]; 250 mg/day, Observation start date (before administration)): 9.55 g/dL
Hb, Median ([1]; 250 mg/day, Week 0 (baseline)): 9.80 g/dL
Hb, Median ([1]; 250 mg/day, Week 3): 10.75 g/dL
Hb, Median ([1]; 250 mg/day, Week 7): 11.80 g/dL
Hb change, End of administration, Mean ([1]; 250 mg/day): 2.25 g/dL
Williams test, Mean of change amount from the baseline at the end of administration, JTT-751-placebo ([1]; 250 mg/day): 2.50 g/dL
Hb measured value, Base line, Mean ([1]; 500 mg/day): 8.98 g/dL
Hb measured value, End of administration, Mean ([1]; 500 mg/day): 11.71 g/dL
Williams test, Mean of change amount from the baseline at the end of administration, Mean ([1]; 500 mg/day): 2.73 g/dL
Hb, Median ([1]; 500 mg/day, 9 weeks after Week 0): 11.70 g/dL
Hb, Median ([1]; 500 mg/day, End of administration): 11.90 g/dL
Hb, Median ([1]; 500 mg/day, Observation start date (before administration)): 9.30 g/dL
Hb, Median ([1]; 500 mg/day, Week 0 (baseline)): 8.95 g/dL
Hb, Median ([1]; 500 mg/day, Week 3): 10.10 g/dL
Hb, Median ([1]; 500 mg/day, Week 7): 11.90 g/dL
Hb change, End of administration, Mean ([1]; 500 mg/day): 2.73 g/dL
Williams test, Mean of change amount from the baseline at the end of administration, JTT-751-placebo ([1]; 500 mg/day): 2.98 g/dL
Hb measured value, Base line, Mean ([1]; 1000 mg/day): 9.66 g/dL
Hb measured value, End of administration, Mean ([1]; 1000 mg/day): 12.72 g/dL
Williams test, Mean of change amount from the baseline at the end of administration, Mean ([1]; 1000 mg/day): 3.05 g/dL
Hb, Median ([1]; 1000 mg/day, 9 weeks after Week 0): 12.70 g/dL
Hb, Median ([1]; 1000 mg/day, End of administration): 12.90 g/dL
Hb, Median ([1]; 1000 mg/day, Observation start date (before administration)): 9.90 g/dL
Hb, Median ([1]; 1000 mg/day, Week 0 (baseline)): 9.80 g/dL
Hb, Median ([1]; 1000 mg/day, Week 3): 11.80 g/dL
Hb, Median ([1]; 1000 mg/day, Week 7): 12.90 g/dL
Hb change, End of administration, Mean ([1]; 1000 mg/day): 3.05 g/dL
Williams test, Mean of change amount from the baseline at the end of administration, JTT-751-placebo ([1]; 1000 mg/day): 3.30 g/dL
Hb measured value, Base line, Mean ([1]; 1500 mg/day): 9.38 g/dL
Hb measured value, End of administration, Mean ([1]; 1500 mg/day): 12.75 g/dL
Williams test, Mean of change amount from the baseline at the end of administration, Mean ([1]; 1500 mg/day): 3.37 g/dL
Hb, Median ([1]; 1500 mg/day, 9 weeks after Week 0): 12.70 g/dL
Hb, Median ([1]; 1500 mg/day, End of administration): 13.00 g/dL
Hb, Median ([1]; 1500 mg/day, Observation start date (before administration)): 9.40 g/dL
Hb, Median ([1]; 1500 mg/day, Week 0 (baseline)): 9.40 g/dL
Hb, Median ([1]; 1500 mg/day, Week 3): 11.60 g/dL
Hb, Median ([1]; 1500 mg/day, Week 7): 13.00 g/dL
Hb change, End of administration, Mean ([1]; 1500 mg/day): 3.37 g/dL
Williams test, Mean of change amount from the baseline at the end of administration, JTT-751-placebo ([1]; 1500 mg/day): 3.62 g/dL
blood hemoglobin value, dose dependence ([1]; 250-1500 mg/day): increases along with the dose increase
blood hemoglobin value, time-dependent change ([1]; Week 0, Week 3 and Week 7): increased along with the continuous administration
blood hemoglobin value after completion of administration ([1]; nine weeks after Week 0 (two weeks after completion of administration)): did not decrease
blood hemoglobin value compared to the placebo administration group ([1]; regardless of the dose amount (250-1500 mg/day), end of administration): significantly increase
Hepcidin-25, Mean [2, 3]: 2.196 pg/mL
Hepcidin-25, Median [2, 3]: 1.520 pg/mL
Hepcidin-25, Mean [2, 4]: 4.818 pg/mL
Hepcidin-25, Median [2, 4]: 3.925 pg/mL
Hepcidin-25, Mean [2, 5]: 11.465 pg/mL
Hepcidin-25, Median [2, 5]: 9.680 pg/mL
Hepcidin-25, Mean [2, 6]: 11.674 pg/mL
Hepcidin-25, Median [2, 6]: 8.440 pg/mL
Hepcidin-25, Mean [2, 7]: 0.726 pg/mL
Hepcidin-25, Median [2, 7]: 0.715 pg/mL
Hepcidin-25, Mean [2, 8]: 0.593 pg/mL
Hepcidin-25, Median [2, 8]: 0.290 pg/mL
Hepcidin-25, Mean [2, 9]: 0.509 pg/mL
Hepcidin-25, Median [2, 9]: 0.410 pg/mL
Hepcidin-25, Mean [2, 10]: 0.631 pg/mL
Hepcidin-25, Median [2, 10]: 0.600 pg/mL
Hepcidin 25 concentration, time-dependent change ([2]; Week 0, Week 3 and Week 7): increased along with the continuous administration
Hepcidin-25, Mean ([2]; Week 3, JTT-751 250 mg group): 1.289 pg/mL
Hepcidin-25, Median ([2]; Week 3, JTT-751 250 mg group): 0.695 pg/mL
Hepcidin-25, Mean ([2]; Week 3, JTT-751 500 mg group): 1.839 pg/mL
Hepcidin-25, Median ([2]; Week 3, JTT-751 500 mg group): 0.895 pg/mL
Hepcidin-25, Mean ([2]; Week 3, JTT-751 1000 mg group): 8.623 pg/mL
Hepcidin-25, Median ([2]; Week 3, JTT-751 1000 mg group): 8.430 pg/mL
Hepcidin-25, Mean ([2]; Week 3, JTT-751 1500 mg group): 7.813 pg/mL
Hepcidin-25, Median ([2]; Week 3, JTT-751 1500 mg group): 5.940 pg/mL
Hepcidin-25, Mean ([2]; Week 7, JTT-751 250 mg group): 2.196 pg/mL
Hepcidin-25, Median ([2]; Week 7, JTT-751 250 mg group): 1.520 pg/mL
Hepcidin-25, Mean ([2]; Week 7, JTT-751 500 mg group): 4.818 pg/mL
Hepcidin-25, Median ([2]; Week 7, JTT-751 500 mg group): 3.925 pg/mL
Hepcidin-25, Mean ([2]; Week 7, JTT-751 1000 mg group): 11.465 pg/mL
Hepcidin-25, Median ([2]; Week 7, JTT-751 1000 mg group): 9.680 pg/mL
Hepcidin-25, Mean ([2]; Week 7, JTT-751 1500 mg group): 11.674 pg/mL
Hepcidin-25, Median ([2]; Week 7, JTT-751 1500 mg group): 8.440 pg/mL
